Measurements from patent publication US20060062859A1, “Composition and method to optimize and customize nutritional supplement formulations by measuring genetic and metabolomic contributing factors to disease diagnosis, stratification, prognosis, metabolism, and therapeutic outcomes” (priority 2004, published 2006).
Where no end group is shown, it is not given here.

What was measured:
[1] = VTA / midbrain dopamine neurons; cited from earlier work
[2] = chronic treatment; cited from earlier work
[3] = direct microinjection; cited from earlier work
[4] = test system: brain dopamine and serotonin flux; conditions: cited from earlier work
synaptosomal dopamine = conditions: cited from earlier work
[5] = cited from earlier work
[6] = repeated stress; cited from earlier work
[7] = cited from earlier work; remark: listed apart in the source
D2 receptors in the Nacc = molecular target: T1, D2 receptors in the Nacc (Rattus norvegicus, UniProt P61169); conditions: bilateral, nmol/side; cited from earlier work
T1 construct: from tissue; host or cells: nucleus accumbens in vivo; study cited from the literature

[8] = cited from earlier work; for OA pain / joint function: people with OA
insulin receptor (IR) = molecular target: T2, insulin receptor (IR) (Mus musculus, UniProt P15208); conditions: cited from earlier work
T2 construct: endogenous in cells; study cited from the literature

[9] = Enkephalinase inhibitors in mice: brain enkephalins and alcohol preference; format: in vivo; conditions: for alcohol preference: acceptance and 14 day preference test; for brain enkephalins: d-phenylalanine 500 mg/kg/day 18 days, metabolite 25 micrograms i.c.v.

T2 sequence (P15208 28-748 limits assumed): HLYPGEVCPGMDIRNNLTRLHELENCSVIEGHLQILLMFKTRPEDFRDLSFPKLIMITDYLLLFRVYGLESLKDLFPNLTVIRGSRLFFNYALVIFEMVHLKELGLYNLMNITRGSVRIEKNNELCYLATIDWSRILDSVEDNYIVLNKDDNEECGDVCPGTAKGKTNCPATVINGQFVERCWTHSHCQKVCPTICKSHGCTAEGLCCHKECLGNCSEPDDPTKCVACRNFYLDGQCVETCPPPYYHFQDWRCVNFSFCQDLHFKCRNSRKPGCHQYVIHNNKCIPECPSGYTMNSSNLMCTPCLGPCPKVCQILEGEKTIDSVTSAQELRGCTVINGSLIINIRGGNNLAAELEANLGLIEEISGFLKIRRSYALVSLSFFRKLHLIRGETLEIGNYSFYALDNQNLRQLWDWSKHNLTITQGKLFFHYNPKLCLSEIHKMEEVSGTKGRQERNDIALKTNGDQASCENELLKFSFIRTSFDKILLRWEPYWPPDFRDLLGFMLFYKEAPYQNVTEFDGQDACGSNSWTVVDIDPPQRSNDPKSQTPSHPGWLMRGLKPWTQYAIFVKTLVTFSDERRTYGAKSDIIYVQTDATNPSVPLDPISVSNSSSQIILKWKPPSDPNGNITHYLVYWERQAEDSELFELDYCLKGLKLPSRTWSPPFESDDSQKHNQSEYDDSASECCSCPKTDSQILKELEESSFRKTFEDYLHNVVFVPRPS
T2 sequence (P15208 753-1372 limits assumed): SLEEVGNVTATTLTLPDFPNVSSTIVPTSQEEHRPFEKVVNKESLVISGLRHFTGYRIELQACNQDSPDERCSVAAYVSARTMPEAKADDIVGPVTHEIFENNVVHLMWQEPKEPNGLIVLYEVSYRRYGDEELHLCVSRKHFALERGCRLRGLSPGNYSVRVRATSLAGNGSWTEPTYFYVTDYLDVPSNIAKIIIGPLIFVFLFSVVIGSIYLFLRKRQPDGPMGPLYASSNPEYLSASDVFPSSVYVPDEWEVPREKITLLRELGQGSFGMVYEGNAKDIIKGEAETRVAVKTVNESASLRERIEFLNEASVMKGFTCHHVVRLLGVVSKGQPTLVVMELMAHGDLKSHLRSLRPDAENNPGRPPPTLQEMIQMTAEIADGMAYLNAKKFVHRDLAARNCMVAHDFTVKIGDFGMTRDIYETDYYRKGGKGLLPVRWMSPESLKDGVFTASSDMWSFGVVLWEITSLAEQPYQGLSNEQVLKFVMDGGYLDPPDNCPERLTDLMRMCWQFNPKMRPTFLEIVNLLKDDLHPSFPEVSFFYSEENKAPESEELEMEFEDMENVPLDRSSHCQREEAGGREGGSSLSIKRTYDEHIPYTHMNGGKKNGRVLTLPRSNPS
T1 sequence (P61169 whole entry): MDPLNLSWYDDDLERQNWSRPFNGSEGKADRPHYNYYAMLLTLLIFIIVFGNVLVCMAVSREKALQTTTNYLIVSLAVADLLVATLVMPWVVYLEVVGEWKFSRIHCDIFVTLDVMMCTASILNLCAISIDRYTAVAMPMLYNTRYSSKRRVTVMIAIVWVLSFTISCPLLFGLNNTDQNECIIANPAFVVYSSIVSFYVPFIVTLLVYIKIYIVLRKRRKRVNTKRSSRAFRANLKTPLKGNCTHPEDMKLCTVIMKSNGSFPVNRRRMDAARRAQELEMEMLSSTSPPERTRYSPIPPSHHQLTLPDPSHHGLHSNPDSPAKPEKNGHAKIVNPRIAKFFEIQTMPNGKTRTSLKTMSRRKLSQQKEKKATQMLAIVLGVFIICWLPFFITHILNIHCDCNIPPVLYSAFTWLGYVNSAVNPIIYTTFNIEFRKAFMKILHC

Q: Which “tonic pain / analgesia in the formalin test” value [1] does the source give for `CN1CC[C@]23c4c5ccc(O)c4O[C@H]2[C@@H](O)C=C[C@H]3[C@H]1C5` [morphine] here?
A: The value was “induces analgesia”.

Q: And the food intake [2]?
A: Its food intake is “decreased food intake”.

Q: Which “symptoms after withdrawal of opiates” value [3] does the source give for `CCCN1CCc2cccc3c2[C@H]1Cc1ccc(O)c(O)c1-3` [n-propylnor-apomorphine] here?
A: Its value is “significantly suppresses”.

Q: What does the source list for `CC(C)CC(N(C)C)C1(c2ccc(Cl)cc2)CCC1` (stereo not drawn) [Sibutramine]?
A: serotonin and dopamine concentrations in striatal and hypothalamic brain regions ([4]; higher doses): increased; serotonin and dopamine concentrations in dialysates ([4]; low doses): no effect

Q: With `CCn1cc(C(=O)O)c(=O)c2ccc(Cc3ccccc3)nc21` [Amfoelic acid] as the compound, how does the “release of dopamine formed from 14C-phenylalanine” value (“release of dopamine formed” for short) (synaptosomal dopamine) read?
A: The value was “net release”.

Q: For `CCN[C@@H](C)Cc1cccc(C(F)(F)F)c1` [d-fenfluramine], which “consumption of a sucrose solution” value ([5]; non-deprived rats) is on record?
A: The value was “reduced”.

Q: For `CN(C)CCCN1c2ccccc2CCc2ccc(Cl)cc21` [clomipramine], which development of hyperalgesia [6] is on record?
A: The development of hyperalgesia was “blocks”.

Q: Which “lower body weight per 300 mg increment of regular intake” value ([7]; adults) does the source give for `[Ca+2]` [calcium] here?
A: The value was 2.5 to 3.0 kg.

Q: And the “weight loss compared to the placebo group” value ([7]; approximately 4 years of observation)?
A: The value was “significant weight loss”.

Q: And the “less body fat per 300 mg increment of regular intake” value ([7]; children)?
A: Its value is “about 1 kg”.

Q: And the “reduction of prevalence of overweight and obesity (estimate)” value ([7]; increased intake)?
A: Its value is 60-80%.

Q: For “substance P (RPKPQQFFGLM; ends and bridges not checked; UniProt P20366 58-68, looked up) [SP, tachykinin neuropeptide, substance P]”, which “tonic pain / analgesia in the formalin test” value [1] is on record?
A: Its value is “inhibit tonic pain”.

Q: Which “persistent phase of formalin-induced nociception” value (D2 receptors in the Nacc) does the source give for `Oc1cc2c(cc1O)C(c1ccccc1)CNCC2` (stereo not drawn) [SKF 38393] here?
A: The value was “without effect”.

Q: With `CC(N)Cc1ccccc1` (stereo not drawn) [Amphetamine] as the compound, how does the “release of dopamine formed” value (synaptosomal dopamine) read?
A: The value was “increased”.

Q: For `CNCCC(Oc1ccc(C(F)(F)F)cc1)c1ccccc1` (stereo not drawn) [fluoxitine], which “ingestion of saccharin solutions” value ([5]; normal rats) is on record?
A: The value was “suppresses”.

Q: And the development of hyperalgesia [6]?
A: The development of hyperalgesia was “blocks”.

Q: With `CN1[C@@H]2CC[C@H]1C[C@@H](OC(c1ccccc1)c1ccccc1)C2` [Cogentin] as the compound, how does the “release of dopamine formed” value (synaptosomal dopamine) read?
A: The value was “increased”.

Q: For `CCN1CCC[C@H]1CNC(=O)c1c(O)c(Cl)cc(Cl)c1OC` [raclopride], which “persistent phase of formalin-induced nociception” value (D2 receptors in the Nacc) is on record?
A: Its value is “blocked”.

Q: With `C[S+](CC[C@H](N)C(=O)[O-])C[C@H]1O[C@@H](n2cnc3c(N)ncnc32)[C@H](O)[C@@H]1O` (stereo partly drawn) [SAM-e, S-adenosyl-L-methionine] as the compound, how does the “OA pain / joint function” value [8] read?
A: Its value is “equal to NSAIDs”.

Q: What does the source list for `O=C(OC[C@H]1O[C@@H](OC(=O)c2cc(O)c(O)c(OC(=O)c3cc(O)c(O)c(O)c3)c2)[C@H](OC(=O)c2cc(O)c(O)c(OC(=O)c3cc(O)c(O)c(O)c3)c2)[C@@H](OC(=O)c2cc(O)c(O)c(OC(=O)c3cc(O)c(O)c(O)c3)c2)[C@@H]1OC(=O)c1cc(O)c(O)c(OC(=O)c2cc(O)c(O)c(O)c2)c1)c1cc(O)c(O)c(OC(=O)c2cc(O)c(O)c(O)c2)c1` [Tannic Acid]?
A: expression of key genes for adipogenesis (PPAR-gamma 2; c-fos; c-jun and c-myc) (insulin receptor (IR)): inhibit; phosphorylation of the insulin receptor (IR) (insulin receptor (IR)): induces phosphorylation; translocation of the glucose transporter (GLUT 4) (insulin receptor (IR)): translocation

Q: With `N[C@H](Cc1ccccc1)C(=O)O` [d-phenylalanine] as the compound, how does the alcohol preference [9] read?
A: Its alcohol preference is “significantly reduced”.

Q: And the brain enkephalins [9]?
A: Its brain enkephalins is “brain changes of the enkephalins”.

Q: Which “progression of the disease” value ([8]; knee OA, three years) does the source give for `N[C@H]1C(O)O[C@H](CO)[C@@H](O)[C@@H]1O` (stereo partly drawn) [glucosamine] here?
A: Its value is “slowed, if not stopped”.

Q: With CHONDROITIN SULFATE as the compound, how does the “OA pain / joint function” value [8] read?
A: Its value is “significant improvement in pain and inflammation and improved joint function”.

Q: For `O=C(O)CCc1ccccc1` [hydrocunnamic acid, reference compound], which alcohol preference [9] is on record?
A: The alcohol preference was “significantly reduced”.

Q: And the brain enkephalins [9]?
A: The brain enkephalins was “brain changes of the enkephalins”.

Q: With `N[C@@H](Cc1c[nH]c2ccccc12)C(=O)O` [tryptophan] as the compound, how does the development of hyperalgesia [6] read?
A: The development of hyperalgesia was “blocks”.
